Target: PDE10A (Homo sapiens, UniProt Q9Y233)
Assay type: biochemical

Sequence of PDE10A (Q9Y233 whole entry): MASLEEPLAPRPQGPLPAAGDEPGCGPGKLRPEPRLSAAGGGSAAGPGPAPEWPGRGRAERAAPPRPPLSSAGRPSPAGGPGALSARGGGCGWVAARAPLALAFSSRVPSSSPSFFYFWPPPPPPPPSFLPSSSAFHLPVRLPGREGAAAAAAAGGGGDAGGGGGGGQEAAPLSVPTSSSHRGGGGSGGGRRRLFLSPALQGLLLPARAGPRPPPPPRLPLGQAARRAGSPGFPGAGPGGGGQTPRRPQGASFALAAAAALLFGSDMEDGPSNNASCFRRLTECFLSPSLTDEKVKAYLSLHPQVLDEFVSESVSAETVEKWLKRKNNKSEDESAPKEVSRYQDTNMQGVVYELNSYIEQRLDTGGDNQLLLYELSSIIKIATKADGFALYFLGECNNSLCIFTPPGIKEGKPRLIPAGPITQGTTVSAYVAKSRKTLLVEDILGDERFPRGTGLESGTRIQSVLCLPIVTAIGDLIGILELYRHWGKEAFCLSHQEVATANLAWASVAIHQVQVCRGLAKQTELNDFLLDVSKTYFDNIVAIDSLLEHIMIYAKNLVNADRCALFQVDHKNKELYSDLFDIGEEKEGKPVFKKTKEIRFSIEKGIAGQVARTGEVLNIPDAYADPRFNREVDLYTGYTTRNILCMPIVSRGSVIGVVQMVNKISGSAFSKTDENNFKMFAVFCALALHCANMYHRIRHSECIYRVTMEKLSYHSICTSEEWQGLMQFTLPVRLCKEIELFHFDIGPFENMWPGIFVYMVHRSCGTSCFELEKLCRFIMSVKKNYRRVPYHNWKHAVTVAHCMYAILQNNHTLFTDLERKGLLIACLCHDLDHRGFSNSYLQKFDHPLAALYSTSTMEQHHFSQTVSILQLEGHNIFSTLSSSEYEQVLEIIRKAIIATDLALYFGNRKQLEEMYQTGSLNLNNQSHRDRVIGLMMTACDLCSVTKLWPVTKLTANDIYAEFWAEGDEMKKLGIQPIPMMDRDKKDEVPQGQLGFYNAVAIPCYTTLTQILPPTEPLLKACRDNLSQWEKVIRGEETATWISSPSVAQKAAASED

IC50: 1600 nM
Substance: Zinc42657360

— article PMC8979230 (RSC Advances, 2022)
